As usually defined, the IC50 is the concentration at which inhibition is half-maximal.

This assay has as its target Human recombinant LSD1 protein (Homo sapiens (Human), UniProt O60341). The assay can be described thus: LSD1 enzymatic activity, AlphaLISA demethylation assay. The assay is classed as biochemical. Conditions: 4 nM LSD1, 80 nM Biotin-H3K4Me peptide substrate, 1% DMSO, 60 minutes reaction. As for the experimental part:
Human recombinant LSD1 protein expressed in E. coli cells was purchased from Active Motif (Carlsbad, Calif.). Biotin-labeled Histone H3K4Me peptide (residues 1-21 with Lys 4 monomethylated) substrate was purchased from Anaspec (Fremont, Calif.). Enzymatic activity was assessed using the AlphaLISA technology from Perkin Elmer Life Sciences (Waltham, Mass.). 2.5 μL of compound solution and 5 μL of LSD1 solutions in the assay buffer (50 mM Tris, pH 9.0, 50 mM NaCl with 0.01% Tween20 and 1 mM DTT added right before the assay) were added into a white low volume 384 well microtiter plate. This mixture solution was incubated for 15 minutes with gentle shaking at room temperature. Demethylation reaction was initiated by adding 2.5 μL of Biotin-H3K4Me peptide substrate solution in the assay buffer. Final concentrations of LSD1, Biotin-H3K4Me peptide substrate, and DMSO were 4 nM, 80 nM, and 1%, respectively. The reaction was allowed to proceed for 60 minutes in dark with gentle shaking at room temperature, after which 5 μL of Anti-H3K4 AlphaLISA acceptor beads in detection buffer from the manufacturer was added into the reaction mixture followed by incubation for 60 minutes. 10 μL of Streptavidin labeled AlphaLISA donor beads in detection buffer was added into the mixture followed by 30-minute incubation. Final acceptor and donor beads concentrations were both at 10 μg/mL. Plates were read on a BMG CLARIOStar multimode plate reader from BMG Labtech (Ortenberg, Germany) with an excitation wavelength of 680 nm and emission wavelength of 615 nm. IC50 values of inhibitors were obtained by fitting the fluorescence intensity vs inhibitor concentrations in a sigmoidal dose-response curve (variable slope) with a non-linear regression using Prism 7 (La Jolla, Calif.).
A general note: In Alpha technology, singlet oxygen from a donor bead excites a nearby acceptor bead.

In the case of `N#Cc1ccc(-c2c(-c3ccc4c(c3)OCCO4)ncc3c2ncn3C[C@H]2CCNC2)cc1F` [compound 28, (S)-4-(6-(2,3-dihydrobenzo[b][1,4]dioxin-6-yl)-3-(pyrrolidin-3-ylmethyl)-3H-imidazo[4,5-c]pyridin-7-yl)-2-fluorobenzonitrile], the 50% inhibitory concentration (IC50) is 9.57 nM.

Regarding `CN1CCOc2ccc(-c3ncc4c(ncn4C[C@H]4CCNC4)c3-c3ccc(C#N)c(F)c3)cc21` [compound 29, (S)-2-fluoro-4-(6-(4-methyl-3,4-dihydro-2H-benzo[b][1,4]oxazin-6-yl)-3-(pyrrolidin-3-ylmethyl)-3H-imidazo[4,5-c]pyridin-7-yl)benzonitrile], the half-inhibitory concentration (IC50) was 47 nM.

Consider `Cn1ncc2cc(-c3ncc4c(ncn4C[C@H]4CCNC4)c3-c3ccc(C#N)cc3)ccc21` [compound 30, (S)-4-(6-(1-methyl-1H-indazol-5-yl)-3-(pyrrolidin-3-ylmethyl)-3H-imidazo[4,5-c]pyridin-7-yl)benzonitrile], for which the concentration for half-maximal inhibition (IC50) turned out to be 39.8 nM.

With `CN1CCC(Cn2cnc3c(-c4ccc(C#N)cc4)c(-c4ccc5c(cnn5C)c4)ncc32)C1` (stereo not drawn) [compound 31, 4-(6-(1-methyl-1H-indazol-5-yl)-3-((1-methylpyrrolidin-3-yl)methyl)-3H-imidazo[4,5-c]pyridin-7-yl)benzonitrile], the IC50 is 87.2 nM.

Turning to `CN1CCOc2cc(-c3ncc4c(ncn4CC4CCNC4)c3-c3ccc(C#N)cc3)ccc21` (stereo not drawn) [compound 32, 4-(6-(4-methyl-3,4-dihydro-2H-benzo[b][1,4]oxazin-7-yl)-3-(pyrrolidin-3-ylmethyl)-3H-imidazo[4,5-c]pyridin-7-yl)benzonitrile], the IC50 amounted to 5.67 nM.

`CN1CCC(Cn2cnc3c(-c4ccc(C#N)cc4)c(-c4ccc5c(c4)OCCN5C)ncc32)C1` (stereo not drawn) [compound 33, 4-(6-(4-methyl-3,4-dihydro-2H-benzo[b][1,4]oxazin-7-yl)-3-((1-methylpyrrolidin-3-yl)methyl)-3H-imidazo[4,5-c]pyridin-7-yl)benzonitrile]: the IC50 came out at 29.5 nM.

For the origin of these results see patent publication US11944614B2, “Imidazo[4,5-c]pyridine compounds as LSD-1 inhibitors” (THE REGENTS OF THE UNIVERSITY OF MICHIGAN, priority 2018, dated 2024).
